# Source: patent publication US20180237399A1, “COMPOUNDS HAVING AGONISTIC EFFECT AGAINST GPR84, PREPARATION METHOD FOR COMPOUNDS AND USE OF COMPOUNDS” (SHANGHAI INSTITUTE OF MATERIA MEDICA, CHINESE ACADEMY OF …, priority 2015, published 2018)
# Like-named read-outs stand apart in the source and are kept apart here.
# Columns and labels:
# [1] = biological target: T1, GPR84 (Homo sapiens, UniProt Q9NQS5); conditions: in words; cited from earlier work
# Target sequence in this assay (Q9NQS5 whole entry, species assumed): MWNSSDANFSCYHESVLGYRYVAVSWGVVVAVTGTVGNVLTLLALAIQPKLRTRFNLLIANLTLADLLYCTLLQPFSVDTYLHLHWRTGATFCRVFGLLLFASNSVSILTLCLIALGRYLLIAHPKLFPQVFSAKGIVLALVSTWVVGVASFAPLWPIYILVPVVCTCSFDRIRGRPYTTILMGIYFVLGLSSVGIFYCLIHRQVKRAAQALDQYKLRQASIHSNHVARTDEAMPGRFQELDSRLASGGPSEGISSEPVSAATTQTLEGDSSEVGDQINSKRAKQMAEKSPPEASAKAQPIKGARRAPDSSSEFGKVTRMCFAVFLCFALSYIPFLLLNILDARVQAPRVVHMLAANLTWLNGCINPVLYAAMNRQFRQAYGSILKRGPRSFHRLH
# [2] = biological target: T1, GPR84; assay: Detection of cytoplasmic calcium ion concentration with Fluo-4 fluorescent dye tracer assay (GPR84 agonist activity); type: cell-based; parameters: expressed in transfected cells; host or cells: HEK293; conditions: HEK293 cell line transfected with GPR84 and G16; Fluo-4 calcium fluorescence
# Description: Detection of Cytoplasmic Calcium Ion Concentration with Fluo-4 Fluorescent Dye Tracer Assay
# The GPR84 agonist activity of the compounds of the invention was tested.
# The human GPR84 cell line was obtained by transfecting a plasmid encoding the GPR84 and G16 proteins in the HEK293 cell line. The fluorescent dye Fluo-4 AM was purchased from Invitrogen.
# Intracellular Ca^2+ ion is a very important second messenger of G protein-coupled receptor signaling pathway. […] Fluo-4 is a Ca^2+ ion-specific fluorescent probe that binds quantitatively to Ca^2+ ions and emits fluorescence. Therefore, fluorescence assay was used to detect the agonistic activity of compounds in 96-well or 384-well flat bottom microplates. The GPR84 cells were incubated with the Fluo-4 fluorescent dye and added with different concentrations of compounds for stimulation. The changes in the intracellular calcium concentration were detected by the fluorescence intensity of dyes.
# • 1. […] The pH of the solution was adjusted to 7.4 with hydrochloric acid or NaOH. The solution was filtered, and stored at 4° C. for one month. • 2. Preparation of Ca^2+ buffer: Firstly, a 560 mM D-glucose (100×) stock solution and a 250 mM Sulfinpyrazone (1000×) stock solution were prepared. Then, to 100 mL of HBSS, was added BSA (0.5 g), 560 mM D-glucose stock solution (1 mL) and 250 mM Sulfinpyrazone (100 μL). […] The Ca^2+ buffer was mixed and used as freshly prepared. • 3. Preparation of dyes solution: Firstly, a stock solution of 3% Cremophor EL (100×) in PBS and a stock solution of 2 mM Fluo-4 (1000×) in DMSO was prepared. Secondly, one milliliter of dye solution was prepared by mixing 1 μL of 2 mM Fluo-4 AM with 10 μL of 3% Cremophor EL and diluting with 1 mL of Ca^2+ buffer and mixed. • 4. The GPR84 cells were cultured in a 96-well plate at a starting density of 4×10^4 cells. The cells were continually cultured for more than 24 hours so that the cell density was 80-90% for detection. • 5. The culture fluid was removed from the cells to be tested. The cells were added freshly prepared dyes and incubated in a 37-degree incubator for 40 minutes to 50 minutes. • 6. Preparation of […] solution: Compounds are dissolved and diluted to 3-fold the final working concentration with freshly prepared Ca^2+ buffer. If compounds are dissolved in DMSO, the final DMSO concentration should not exceed 1%. • 7. After the incubation completed, the dye was removed. The cells were washed with Ca^2+ buffer and then incubated with an additional 50 μL of Ca^2+ buffer for 5 to 10 minutes. • 8. The cells were stimulated with 25 μL/well of Ca^2′ buffer containing different concentrations of the compound. The plate was read by using the FlexStation III Multi-Mode Microplate Reader. The changes in the intracellular calcium concentration were detected by the fluorescence intensity of dyes.
# Target sequence in this assay (Q9NQS5 whole entry): as the sequence (Q9NQS5 whole entry, species assumed) above
# [3] = biological target: T1, GPR84; conditions: CHO-GPR84 cells, cAMP assay; read-out: potencies (GPR84 agonists); cited from earlier work
# Target sequence in this assay (Q9NQS5 whole entry, species assumed): as above
EC50 [2] [nM],SMILES,further results
,CCCCCCCCC(O)C(=O)O (stereo not shown) [2-OH—C10],GPR84 agonist activities [1]: some GPR84 agonist activities
,CCCCCCCCCCC(O)C(=O)O (stereo not shown) [2-OH—C12],GPR84 agonist activities [1]: some GPR84 agonist activities
,CCCCCCCC(O)CC(=O)O (stereo not shown) [3-OH—C10],GPR84 agonist activities [1]: some GPR84 agonist activities
,CCCCCCCCCC(O)CC(=O)O (stereo not shown) [3-OH—C12],GPR84 agonist activities [1]: some GPR84 agonist activities
3670,CCCCCc1nc(O)cc(O)n1 [LY182],
2100,CC(C)CCCc1nc(O)cc(O)n1 [LY196b],
1.25,CCCCCCCc1cc(O)cc(O)n1 [LY209],
12.7,CCCCCCCc1nc(O)cc(O)n1 [LY210-b],
21600,C#CCCCSc1nc(O)cc(O)n1 [LY210],
43400,Oc1cc(O)nc(SCC2CCC2)n1 [LY212],
2480,CCCCCSc1nc(O)cc(O)n1 [LY214-5],
1.34,CCCCCCCCc1cc(O)cc(O)n1 [LY223],
653,CCC#CCCSc1nc(O)cc(O)n1 [LY224-a],
11.4,CCCCCCCCc1nc(O)cc(O)n1 [LY224-b],
811,CCCCCCCCc1cc(=O)[nH]c(=O)[nH]1 [LY224-c],
1020,CCCCCCCCc1nc(O)nc(O)n1 [LY225-b],
924,CC/C=C\CCSc1nc(O)cc(O)n1 [LY226],
641,CC(C)CCCSc1nc(O)cc(O)n1 [LY228-6b],
435,CCCCCCCCCc1cc(O)cc(O)c1 [LY236],
299,CCCCCCCC(C)c1nc(O)cc(O)n1 (stereo not shown) [LY238-c],

EC50 [2] [nM],SMILES,further results
3.51,CCCCCCCCCc1cc(O)cc(=O)o1 [LY238-d],
48.7,CCCCCCCCCc1nc(O)cc(O)n1 [LY238],
6.14,CCCCCCCCNc1nc(O)cc(O)n1 [LY239],
340,CCCCCCCCc1cc(=O)[nH]c(=S)[nH]1 [LY240],
231,CCCCCCCSc1nc(O)cc(O)n1 [LY242-7],
6.1,CCCCc1ccc(-c2cc(O)cc(O)n2)cc1 [LY243],
88.1,CCc1ccc(CCc2nc(O)cc(O)n2)cc1 [LY244],
3860,Oc1cc(O)nc(SCCc2ccccc2)n1 [LY248],
264,CCCCCCCCSc1nc(O)cc(O)n1 [LY256-8],
573,Oc1cc(O)nc(SCCCc2ccccc2)n1 [LY262-a],
271,CCc1ccc(CSc2nc(O)cc(O)n2)cc1 [LY262-b],
2940,O=c1cc(O)nc(SCCc2ccc(F)cc2)[nH]1 [LY266-a],
1990,Oc1cc(O)nc(SCCc2ccccc2F)n1 [LY266-b],
2590,Oc1cc(O)nc(SCCc2cccc(F)c2)n1 [LY266-c],
435,Oc1cc(O)nc(SCCCCc2ccccc2)n1 [LY276],
1080,Oc1cc(O)nc(SCCCCCc2ccccc2)n1 [LY290-a],
1160,CCCCCCCCCCCCSc1nc(O)cc(O)n1 [LY312-12],
25700,CCCCCCCCCCCCCCSc1nc(O)cc(O)n1 [LY340-14],
11300,CCCCCCCCCCCCCCCCSc1nc(O)cc(O)n1 [LY368-16],
,CCCCCCCCCCCC(=O)O [lauric acid],EC50 [3]: 9000 nM
